For experiment [1], the target named is T1, PP1 (Oryctolagus cuniculus, UniProt P62139).
T1 construct: purchased NewEngland Biolabs; host or cells: E. coli
Description: DiFMUP assay for PP1. The format is biochemical. The following applies: 2 mU PP1c, 30 min preincubation, 25°C, DiFMUP, no BSA; mean ± SEM (n = 3–5); read-out: IC50 (Ki) PP1. The protocol: Fig 2 Effect of polyphenolic compounds 8 (A), 9 (B), 10 (C) and 11 (D) on the phosphatase activity of PRL-1, PRL-2, PRL-3, PP1, and PP2A. Proteins were incubated for 30 min with 0–1000 μM of the corresponding procyandin 8–11. Phosphatase activity was measured in the presence of DiFMUP at 25°C using the concentration corresponding to the KM of each protein. The KM for PRLs was determined separately (PRL-3 = 21 μM, PRL-2 and PRL-1 = 24 μM). The KM for PP1 (91 μM) and for PP2A (100 μM) was taken from the literature. Protein concentrations are 50 nM for all PRLs and 2 mU for PP1 and 0.05 U for PP2A (see the Experimental Procedures). Phosphatase activity in the absence of inhibitors was set as 100%. Data represent means ± standard errors of the mean (n = 3–5).
BSA, which is usually supplemented to the assay buffer for stabilizing the PPs was however excluded, as BSA is known to form complexes with polyphenolic compounds [40–42] and thus would decrease the concentrations of the inhibitor in the assay. […] In contrast, the phosphatase activity of PP2A was suppressed to a much lesser extent with weak (for trimer 9 and hexamer 11) and strong statistical significance (dimer 8 and tetramer 10). Thus our results corroborate the data reported previously.
DiFMUP assay for PP1: In a final reaction volume of 100 μL PP1c (2 mU final concentration, according to manufacturer’s instructions) were incubated with decreasing concentrations of the inhibitory polyphenols for 30 minutes at 25°C. The assay buffer contained 25 mM imidazole (pH 7.4), 1 mM dithiothreitol (DTT), and 50 mM NaCl. Bovine serum albumin (BSA) was excluded due to possible binding of the polyphenolic compounds. After the incubation time 20 μL DiFMUP (6,8-Difluoro-4-methylumbelliferyl phosphate) was added to reach a final concentration of 100 μM. Monitoring of the fluorescent dephosphorylation product was monitored and data analyzed as described above.

The test system of experiment [2] is PRL-1 overexpressing HEK293 cells. Description: Wound healing assay. The format is cell-based. The following applies: for cell migration, wound healing: 7 h, PRL-1 overexpressing cells. The protocol:
(§1) To study if procyanidin C2 is able to inhibit PRL-1 and PRL-3 in cells, HEK293 cells were treated in a wound-healing assay (see the experimental procedures). […] As a control the empty vector cell line was again utilized. […] The migration speed was for all cell lines similar when treated with 50 μM of 9. To further corroborate these findings we performed additionally a transwell assay as an alternative way to study cell migration.
(§2) Fig 6 Wound healing abilities of PRL-1 or PRL-3 overexpressing or empty vector control HEK293 cell lines were analyzed in the presence of compound 9 or medium only. Cells were seeded at a concentration of 800,000 cells per insert and procyanidin C2 (9) was added at a concentration of 25 and 50 μM. A) Pictures of the wound gaps were taken at 0 h and 7 h for both conditions (with and without treatment). B) Quantification of the wound healing experiment. Speed of migration is shown for combined data from different replicates, as mean ± SD (n = 38–88). Two-sided t-tests with Welsh correction were performed for p < 0.05. ns = not significant;***: < 0.001; **: < 0.01; *: < 0.05. C) Effect of polyphenolic compounds in a transwell assay on the cell migration of HEK293 empty vector and PRL-3 overexpressing cell lines. Cells were seeded at a concentration of 100,000 cells per insert and procyanidin C2 (9) was added at a final concentration of 25 and 50 μM. Migration was allowed for 16 h before harvesting and staining with calcein AM for fluorescent readout. Mean ± SD (n = 60–72) is shown for combined data from different replicates. Two-sided t-tests with Welsh correction were performed for p < 0.05. ns = not significant. D) Quantification of wound healing experiment including blocking PRL-1 and PRL-3 with analog 3. Speed of migration is shown for combined data from different replicates, as mean ± SD (n = 63–82). Two-sided t-tests with Welsh correction were performed for p < 0.05.
(§3) Wound healing experiments were carried out with μ-dish 35mm culture inserts. 8 × 10^5 cells/mL of the respective HEK293 stable cell lines were seeded into each of the two insert wells and allowed to settle for 40 h in the presence of tetracycline. Then the inserts were gently removed and growth medium supplemented with 7.5% FBS and 0.1% tetracycline was added as well as procyanidin C2 (9) or procyanidin B3 (8) at a final concentration of 25, 50 or 75 μM. For the experiment including blocking of PRLs with analog 3, the latter one was added at a final concentration of 35 μM, followed by addition of procyanidin C2 (9) at either 25 or 50 μM final concentration. Negative controls contained growth medium with FBS only. Pictures of the wound gap were taken at 0 h and 7 h time points. A Zeiss Cellobserver HS microscope was used with 10 × magnitude. For data analysis, in each experiment, the distances between both cell fronts at time point 0 h and 7 h were measured by taking 20 different measuring points. Then all the measurements from different replicates (4) for each experiment were combined and analyzed by t-test using Welsh correction in GraphPad Prism. Data are shown with 99% confidence intervals.

In experiment [3] the test system is HEK293 empty vector control cell line. The experiment can be described thus: Wound healing assay. The format is cell-based. The settings on record: 7 h, empty vector cells. How it is done:
as §1, §2, §3

Experiment [4] relates to PRL-3 overexpressing HEK293 cells. The experiment can be described thus: Wound healing assay. The format is cell-based. The settings on record: for cell migration, wound healing: 7 h, PRL-3 overexpressing cells. The protocol:
as §1, §2, §3

The record followed here is publication PMC4520450, “Procyanidins Negatively Affect the Activity of the Phosphatases of Regenerating Liver” (PLoS ONE, 2015).

T1 sequence (P62139 whole entry): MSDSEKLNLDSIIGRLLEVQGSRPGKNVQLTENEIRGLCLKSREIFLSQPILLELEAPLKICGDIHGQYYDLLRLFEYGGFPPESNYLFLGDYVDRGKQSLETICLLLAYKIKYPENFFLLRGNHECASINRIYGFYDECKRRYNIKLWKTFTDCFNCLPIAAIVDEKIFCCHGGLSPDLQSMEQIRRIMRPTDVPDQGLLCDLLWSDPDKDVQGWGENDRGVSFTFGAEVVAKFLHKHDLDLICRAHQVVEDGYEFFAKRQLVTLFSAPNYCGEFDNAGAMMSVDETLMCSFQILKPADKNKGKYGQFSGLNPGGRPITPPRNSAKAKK

With `Oc1cc(O)c2c(c1)O[C@H](c1ccc(O)c(O)c1)[C@@H](O)[C@@H]2c1c(O)cc(O)c2c1O[C@H](c1ccc(O)c(O)c1)[C@@H](O)C2` [Procyanidin B3 (8), Procyanidin B3], the IC50 in experiment [1] stood at 383 ± 43 µM. Also, the “cell migration, wound healing” value was “significantly decreased the number of migrating cells” in experiment [2] (50 μM); “further decreased migration” in experiment [2] (75 μM); “did not significantly increase migration behavior” in experiment [3] (50 μM); “did not significantly increase the migration speed” in experiment [3] (75 μM); “did not significantly increase migration behavior” in experiment [4] (50 μM); “did not significantly increase the migration speed” in experiment [4] (75 μM).
`Oc1cc(O)c2c(c1)O[C@H](c1ccc(O)c(O)c1)[C@@H](O)[C@@H]2c1c(O)cc(O)c2c1O[C@H](c1ccc(O)c(O)c1)[C@@H](O)[C@@H]2c1c(O)cc(O)c2c1O[C@H](c1ccc(O)c(O)c1)[C@@H](O)C2` [Procyanidin C2 (9), Procyanidin C2]: the half-maximal inhibitory concentration (IC50) in experiment [1] is 88 ± 13.7 µM. Besides, the “migration, wound healing, PRLs blocked with analog 3” value in experiment [2] (25 μM of 9 plus 35 μM analog 3, PRL-1 overexpressing cells) is recorded as “not fully restored to the same level as the empty vector cell line”; in experiment [4] (25 μM of 9 plus 35 μM analog 3, PRL-3 overexpressing cells), “the same as for the empty vector cell line”. Also, the “cell migration, wound healing” value is recorded as “slight drop in cell migration” in experiment [2] (25 μM); “did not change any further compared to 25 μM” in experiment [2] (50 μM); “slightly increased migration behavior” in experiment [3] (25 μM); “significantly increased the number of migrating cells” in experiment [3] (50 μM); “did not decrease significantly” in experiment [4] (25 μM); “significant decrease in cell migration” in experiment [4] (50 μM). In addition, the “migration speed, wound healing, PRLs blocked with analog 3” value in experiment [2] (50 μM of 9 plus 35 μM analog 3, PRL-1 overexpressing cells) was “exactly the same as for the empty vector cell line”; in experiment [4] (50 μM of 9 plus 35 μM analog 3, PRL-3 overexpressing cells) it was “exactly the same as for the empty vector cell line”.
